Measured values as given in the supplement of paper PMC10307832.

Assays:
Assay in all cases: relative viability (nuclei count vs DMSO), 5 days (fraction); higher = more cells survive
Zosuquidar + Linsitinib = compound: O[C@@H](COc1cccc2ncccc12)CN1CCN([C@@H]2c3ccccc3[C@@H]3[C@H](c4ccccc42)C3(F)F)CC1 [Zosuquidar] + C[C@]1(O)C[C@@H](c2nc(-c3ccc4ccc(-c5ccccc5)nc4c3)c3c(N)nccn32)C1 [Linsitinib] (partner 1 µM)
In short: (§1)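 Values are medians from duplicate plates. Each reflects relative viability, defined as the nuclei count of treated wells over that of vehicle wells. Lung cancer cell lines in 1536-well plates were pin-tool dosed one day after seeding with one drug alone or with a fixed anchor-drug dose plus five library-drug doses (not always all listed) in √10 steps, then fixed, stained and imaged at 4× after 5 days.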

[1] = compound: COc1cc2nccc(Oc3ccc(NC(=O)C4(C(=O)Nc5ccc(F)cc5)CC4)cc3)c2cc1OC [Cabozantinib] + O=C(CCCCCCC(=O)Nc1ccccc1)NO [Vorinostat] (partner 1 µM)
In short: as §1

[2] = compound: COc1cc2nccc(Oc3ccc(NC(=O)C4(C(=O)Nc5ccc(F)cc5)CC4)cc3)c2cc1OC [Cabozantinib] + CC(=O)c1c(C)c2cnc(Nc3ccc(N4CCNCC4)cn3)nc2n(C2CCCC2)c1=O [Palbociclib] (partner 0.5 µM)
In short: as §1

[3] = compound: COc1cc2nccc(Oc3ccc(NC(=O)C4(C(=O)Nc5ccc(F)cc5)CC4)cc3)c2cc1OC [Cabozantinib] + C[C@]1(O)C[C@@H](c2nc(-c3ccc4ccc(-c5ccccc5)nc4c3)c3c(N)nccn32)C1 [Linsitinib] (partner 1 µM)
In short: as §1

Row | Cell Line | relative viability (Zosuquidar + Linsitinib; first compound 0.01 µM) | relative viability (Zosuquidar + Linsitinib; first compound 0.03162 µM) | relative viability (Zosuquidar + Linsitinib; first compound 0.1 µM) | relative viability (Zosuquidar + Linsitinib; first compound 0.3162 µM) | relative viability (Zosuquidar + Linsitinib; first compound 1 µM) | relative viability ([1]; first compound 0.02 µM) | relative viability ([1]; first compound 0.06325 µM) | relative viability ([1]; first compound 0.2 µM) | relative viability ([1]; first compound 0.6325 µM) | relative viability ([1]; first compound 2 µM) | relative viability ([2]; first compound 0.06325 µM) | relative viability ([2]; first compound 0.2 µM) | relative viability ([2]; first compound 0.6325 µM) | relative viability ([2]; first compound 2 µM) | relative viability ([3]; first compound 0.02 µM) | relative viability ([3]; first compound 0.06325 µM) | relative viability ([3]; first compound 0.2 µM) | relative viability ([3]; first compound 0.6325 µM) | relative viability ([3]; first compound 2 µM) | relative viability ([2]; first compound 0.02 µM)
1 | LK-2 | 0.663 | 0.745 | 0.515 | 0.722 | 0.574 | 0.226 | 0.178 | 0.385 | 0.309 | 0.348 | 0.969 | 0.704 | 0.69 | 0.636 | 0.724 | 0.73 | 0.619 | 0.633 | 0.716 | –
2 | H3255 | 1.07 | 0.945 | 0.783 | 1.1 | 0.951 | 0.887 | 0.791 | – | 0.769 | 0.926 | 0.351 | – | 0.339 | 0.325 | 1.16 | 0.966 | – | 1.01 | 1.1 | 0.317
3 | NCI-H2347 | 0.968 | 1 | 0.834 | 1.01 | 1.06 | 0.525 | 0.525 | 0.627 | 0.469 | 0.391 | 0.466 | 0.49 | 0.478 | 0.401 | 0.967 | 0.961 | 0.992 | 0.846 | 0.81 | 0.474
4 | CAL-12T | 0.776 | 0.979 | 0.549 | 0.894 | 0.841 | 0.849 | 0.673 | 0.801 | 0.822 | 0.833 | 0.583 | 0.408 | 0.497 | 0.572 | 0.861 | 0.874 | 0.87 | 0.786 | 0.816 | 0.435
5 | A-427 | 1.09 | 1.14 | 0.971 | 1.15 | 1.11 | 0.871 | 0.865 | 0.902 | 0.841 | 0.951 | 0.584 | 0.521 | 0.493 | 0.527 | 1.12 | 1.1 | 1.08 | 1.1 | 1.13 | 0.524
6 | HARA | 0.84 | 0.993 | 0.959 | 1.04 | 1.11 | 0.576 | 0.52 | – | 0.529 | 0.489 | 0.29 | 0.218 | 0.344 | 0.263 | 1.03 | 1.06 | 0.874 | 0.994 | 0.986 | 0.323
7 | NCI-H2170 | – | – | – | – | – | 0.818 | 0.821 | 0.704 | 0.847 | 0.914 | 0.407 | 0.355 | 0.369 | 0.438 | – | – | – | – | – | 0.408
8 | NCI-H2023 | 0.656 | 0.815 | 0.605 | 0.631 | 0.776 | 0.608 | 0.623 | 0.599 | 0.648 | 0.594 | 0.321 | 0.271 | 0.247 | 0.199 | 0.637 | 0.76 | 0.465 | 0.459 | 0.316 | 0.386
9 | ABC-1 | 0.877 | 0.794 | 0.836 | 0.871 | 0.924 | – | 1.24 | 0.99 | 1.02 | 0.913 | 0.734 | 0.707 | 0.855 | 0.654 | 0.719 | 0.816 | 0.81 | 0.87 | 0.754 | –
